The values below come from patent US12655110B2, “Method of producing a crystalline form of sodium 2-[(4S)-8-fluoro-2-[4-(3- methoxyphenyl)piperazin-1-yl]-3-[2-methoxy-5-(trifluoromethyl)phenyl]-4H-quinazoline-4-yl]acetate trihydrate” (A1C246 AG & CO. KG, priority 2020, dated 2026).

What all share (type): physicochemical
Data set [1] can be described thus: Solid form stability in a drying process. The conditions noted are these: drying process (>60° C.).
Data set [2] in a line: Hygroscopicity (DVS). The conditions noted are these: for PXRD after DVS experiment (solid form): after hygroscopicity (DVS) experiment.
The nature of data set [3]: Thermogravimetric analysis (TGA), decomposition. Conditions: heated under nitrogen at 10° C./min from 30° C. to 300° C. The procedure: Thermogravimetric analysis (TGA): Thermogravimetric analyses were recorded in a Mettler Toledo TGA/SDTA851 with a balance MT1 type. Approximately 3-4 mg of sample were weighed (using a MX5 Mettler Toledo microbalance) into 40 μL aluminium crucibles with a pinhole lid and heated under nitrogen (10 mL/min) at 10° C./min from 30° C. to 300° C. Programs used: Data collection and evaluation with software STARe.

Consider `COc1cccc(N2CCN(C3=Nc4c(F)cccc4[C@H](CC(=O)O)N3c3cc(C(F)(F)F)ccc3OC)CC2)c1` [Trihydrate, sodium 2-[(4S)-8-fluoro-2-[4-(3-methoxyphenyl)piperazin-1-yl]-3-[2-methoxy-5-(trifluoromethyl)phenyl]-4H-quinazolin-4-yl]acetate trihydrate], for which the “Solid form change in a drying process” value in data set [1] is “The solid turns into the amorphous”. Further, the “Hygroscopicity (DVS): water adsorption” value in data set [2] (10-80% RH) is recorded as 4.1% water adsorption (10-80% RH); in data set [2] (10-90% RH) it was 8.6% water adsorption (10-90% RH). In addition, the “PXRD after DVS experiment (solid form)” value in data set [2] is “No PXRD changes after experiment”. Moreover, in data set [3], the “TGA: decomposition occurs at” value is “Decomposition occurs at ca. 250 °C”.

As for `CCO.COc1cccc(N2CCN(C3=Nc4c(F)cccc4[C@H](CC(=O)[O-])N3c3cc(C(F)(F)F)ccc3OC)CC2)c1.O.[Na+]` [Ethanol/Water Solvate, sodium 2-[(4S)-8-fluoro-2-[4-(3-methoxyphenyl)piperazin-1-yl]-3-[2-methoxy-5-(trifluoromethyl)phenyl]-4H-quinazolin-4-yl]acetate ethanol monohydrate], the “Solid form change in a drying process” value in data set [1] was “The solid turns into the amorphous”. Moreover, the “Hygroscopicity (DVS): water adsorption” value in data set [2] (10-80% RH) is 5.3% water adsorption (10-80% RH); in data set [2] (10-90% RH), 3.2% water adsorption (10-90% RH). Moreover, the “PXRD after DVS experiment (solid form)” value in data set [2] was “PXRD after experiment: trihydrate”. For the same compound, the “TGA: decomposition occurs at” value in data set [3] was “Decomposition occurs at ca. 250 °C”.
